System: Crude diglycosidase
Experiment: Examination of substrate concentration in the conversion into isoflavone aglycons by diglycosidase using soybean materials;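 note: percent of the isoflavone family total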
Format: biochemical, Penicillium multicolor IAM7153
Outline: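 Soybean materials (roasted soy flour, soymilk, defatted soybean, concentrated soy protein) at 2–30% (w/v) in 20 mM acetate pH 4.0 were reacted with crude diglycosidase at 55° C with shaking; enzyme solution added was 1.88 AU/mL. Samples taken at 0, 1, 3 and 6 h were ethanol-extracted and analyzed by HPLC.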

COc1cc2c(=O)c(-c3ccc(O)cc3)coc2cc1O[C@@H]1O[C@H](COC(=O)CC(=O)O)[C@@H](O)[C@H](O)[C@H]1O [malonylglycitin, 6″-O-malonylglycitin]
Decomposition efficiency: ratio of each glycoside/aglycon within its isoflavone family (defatted soybean, substrate concentration 10%, heat treatment of enzyme no, reaction time 3 h): 36.6% | Decomposition efficiency: ratio of each glycoside/aglycon within its isoflavone family (defatted soybean, substrate concentration 10%, heat treatment of enzyme no, reaction time 6 h): 27.9% | Decomposition efficiency: ratio of each glycoside/aglycon within its isoflavone family (defatted soybean, substrate concentration 10%, heat treatment of enzyme yes, reaction time 6 h): 57.6% | Decomposition efficiency: ratio of each glycoside/aglycon within its isoflavone family (roasted soy flour, substrate concentration 2%, heat treatment of enzyme no, reaction time 0 h): not detected | Decomposition efficiency: ratio of each glycoside/aglycon within its isoflavone family (roasted soy flour, substrate concentration 2%, heat treatment of enzyme no, reaction time 1 h): not detected | Decomposition efficiency: ratio of each glycoside/aglycon within its isoflavone family (roasted soy flour, substrate concentration 2%, heat treatment of enzyme no, reaction time 3 h): not detected | Decomposition efficiency: ratio of each glycoside/aglycon within its isoflavone family (roasted soy flour, substrate concentration 2%, heat treatment of enzyme no, reaction time 6 h): not detected | Decomposition efficiency: ratio of each glycoside/aglycon within its isoflavone family (roasted soy flour, substrate concentration 2%, heat treatment of enzyme yes, reaction time 6 h): not detected | Decomposition efficiency: ratio of each glycoside/aglycon within its isoflavone family (roasted soy flour, substrate concentration 5%, heat treatment of enzyme no, reaction time 0 h): not detected | Decomposition efficiency: ratio of each glycoside/aglycon within its isoflavone family (roasted soy flour, substrate concentration 5%, heat treatment of enzyme no, reaction time 1 h): not detected | Decomposition efficiency: ratio of each glycoside/aglycon within its isoflavone family (roasted soy flour, substrate concentration 5%, heat treatment of enzyme no, reaction time 3 h): not detected | Decomposition efficiency: ratio of each glycoside/aglycon within its isoflavone family (roasted soy flour, substrate concentration 5%, heat treatment of enzyme no, reaction time 6 h): not detected | Decomposition efficiency: ratio of each glycoside/aglycon within its isoflavone family (roasted soy flour, substrate concentration 5%, heat treatment of enzyme yes, reaction time 6 h): not detected | Decomposition efficiency: ratio of each glycoside/aglycon within its isoflavone family (roasted soy flour, substrate concentration 10%, heat treatment of enzyme no, reaction time 0 h): not detected | Decomposition efficiency: ratio of each glycoside/aglycon within its isoflavone family (roasted soy flour, substrate concentration 10%, heat treatment of enzyme no, reaction time 1 h): not detected | Decomposition efficiency: ratio of each glycoside/aglycon within its isoflavone family (roasted soy flour, substrate concentration 10%, heat treatment of enzyme no, reaction time 3 h): not detected | Decomposition efficiency: ratio of each glycoside/aglycon within its isoflavone family (roasted soy flour, substrate concentration 10%, heat treatment of enzyme no, reaction time 6 h): not detected | Decomposition efficiency: ratio of each glycoside/aglycon within its isoflavone family (roasted soy flour, substrate concentration 10%, heat treatment of enzyme yes, reaction time 6 h): not detected | Decomposition efficiency: ratio of each glycoside/aglycon within its isoflavone family (roasted soy flour, substrate concentration 20%, heat treatment of enzyme no, reaction time 0 h): not detected | Decomposition efficiency: ratio of each glycoside/aglycon within its isoflavone family (roasted soy flour, substrate concentration 20%, heat treatment of enzyme no, reaction time 1 h): not detected | Decomposition efficiency: ratio of each glycoside/aglycon within its isoflavone family (roasted soy flour, substrate concentration 20%, heat treatment of enzyme no, reaction time 3 h): not detected | Decomposition efficiency: ratio of each glycoside/aglycon within its isoflavone family (roasted soy flour, substrate concentration 20%, heat treatment of enzyme no, reaction time 6 h): not detected | Decomposition efficiency: ratio of each glycoside/aglycon within its isoflavone family (roasted soy flour, substrate concentration 20%, heat treatment of enzyme yes, reaction time 6 h): not detected | Decomposition efficiency: ratio of each glycoside/aglycon within its isoflavone family (roasted soy flour, substrate concentration 30%, heat treatment of enzyme no, reaction time 0 h): not detected | Decomposition efficiency: ratio of each glycoside/aglycon within its isoflavone family (roasted soy flour, substrate concentration 30%, heat treatment of enzyme no, reaction time 1 h): not detected | Decomposition efficiency: ratio of each glycoside/aglycon within its isoflavone family (roasted soy flour, substrate concentration 30%, heat treatment of enzyme no, reaction time 3 h): not detected | Decomposition efficiency: ratio of each glycoside/aglycon within its isoflavone family (roasted soy flour, substrate concentration 30%, heat treatment of enzyme no, reaction time 6 h): not detected | Decomposition efficiency: ratio of each glycoside/aglycon within its isoflavone family (roasted soy flour, substrate concentration 30%, heat treatment of enzyme yes, reaction time 6 h): not detected | Decomposition efficiency: ratio of each glycoside/aglycon within its isoflavone family (soymilk, substrate concentration 2%, heat treatment of enzyme no, reaction time 0 h): 28.2% | Decomposition efficiency: ratio of each glycoside/aglycon within its isoflavone family (soymilk, substrate concentration 2%, heat treatment of enzyme no, reaction time 1 h): not detected | Decomposition efficiency: ratio of each glycoside/aglycon within its isoflavone family (soymilk, substrate concentration 2%, heat treatment of enzyme no, reaction time 3 h): not detected | Decomposition efficiency: ratio of each glycoside/aglycon within its isoflavone family (soymilk, substrate concentration 2%, heat treatment of enzyme no, reaction time 6 h): not detected | Decomposition efficiency: ratio of each glycoside/aglycon within its isoflavone family (soymilk, substrate concentration 2%, heat treatment of enzyme yes, reaction time 6 h): 48.2% | Decomposition efficiency: ratio of each glycoside/aglycon within its isoflavone family (soymilk, substrate concentration 5%, heat treatment of enzyme no, reaction time 0 h): 50.6% | Decomposition efficiency: ratio of each glycoside/aglycon within its isoflavone family (soymilk, substrate concentration 5%, heat treatment of enzyme no, reaction time 1 h): 24.6% | Decomposition efficiency: ratio of each glycoside/aglycon within its isoflavone family (soymilk, substrate concentration 5%, heat treatment of enzyme no, reaction time 3 h): 7.5% | Decomposition efficiency: ratio of each glycoside/aglycon within its isoflavone family (soymilk, substrate concentration 5%, heat treatment of enzyme no, reaction time 6 h): not detected | Decomposition efficiency: ratio of each glycoside/aglycon within its isoflavone family (soymilk, substrate concentration 5%, heat treatment of enzyme yes, reaction time 6 h): 43.3% | Decomposition efficiency: ratio of each glycoside/aglycon within its isoflavone family (soymilk, substrate concentration 10%, heat treatment of enzyme no, reaction time 0 h): 41.1% | Decomposition efficiency: ratio of each glycoside/aglycon within its isoflavone family (soymilk, substrate concentration 10%, heat treatment of enzyme no, reaction time 1 h): 26.4% | Decomposition efficiency: ratio of each glycoside/aglycon within its isoflavone family (soymilk, substrate concentration 10%, heat treatment of enzyme no, reaction time 3 h): 10.5% | Decomposition efficiency: ratio of each glycoside/aglycon within its isoflavone family (soymilk, substrate concentration 10%, heat treatment of enzyme no, reaction time 6 h): 4.2% | Decomposition efficiency: ratio of each glycoside/aglycon within its isoflavone family (soymilk, substrate concentration 10%, heat treatment of enzyme yes, reaction time 6 h): 37.0% | Decomposition efficiency: ratio of each glycoside/aglycon within its isoflavone family (soymilk, substrate concentration 20%, heat treatment of enzyme no, reaction time 0 h): 41.3% | Decomposition efficiency: ratio of each glycoside/aglycon within its isoflavone family (soymilk, substrate concentration 20%, heat treatment of enzyme no, reaction time 1 h): 27.8% | Decomposition efficiency: ratio of each glycoside/aglycon within its isoflavone family (soymilk, substrate concentration 20%, heat treatment of enzyme no, reaction time 3 h): 9.4% | Decomposition efficiency: ratio of each glycoside/aglycon within its isoflavone family (soymilk, substrate concentration 20%, heat treatment of enzyme no, reaction time 6 h): 5.9% | Decomposition efficiency: ratio of each glycoside/aglycon within its isoflavone family (soymilk, substrate concentration 20%, heat treatment of enzyme yes, reaction time 6 h): 38.8% | Decomposition efficiency: ratio of each glycoside/aglycon within its isoflavone family (soymilk, substrate concentration 30%, heat treatment of enzyme no, reaction time 0 h): 43.0% | Decomposition efficiency: ratio of each glycoside/aglycon within its isoflavone family (soymilk, substrate concentration 30%, heat treatment of enzyme no, reaction time 1 h): 33.1% | Decomposition efficiency: ratio of each glycoside/aglycon within its isoflavone family (soymilk, substrate concentration 30%, heat treatment of enzyme no, reaction time 3 h): 15.9% | Decomposition efficiency: ratio of each glycoside/aglycon within its isoflavone family (soymilk, substrate concentration 30%, heat treatment of enzyme no, reaction time 6 h): 7.7% | Decomposition efficiency: ratio of each glycoside/aglycon within its isoflavone family (soymilk, substrate concentration 30%, heat treatment of enzyme yes, reaction time 6 h): 37.5%

Source: patent publication US7118895B2, “Process for producing aglycon by using diglycosidase and flavor-improved food containing the aglycon and converting agent to be used in the process” (Amano Enzyme Inc., priority 2000, dated 2006)
